Data from ChEMBL document CHEMBL1201862, “PubChem BioAssay data set” (2004).
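How tested: cells in 96-well plates exposed to compound for 48 hours at five concentrations. Abbreviation: GI50, concentration required for 50% inhibition of growth.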 The source made the active and inactive calls. Cut-off read from the data, not from the text of the source: active = GI50 up to about 1.1 µM and inactive = higher.

What was measured:
Experiment in all cases: DTP human tumour cell line panel, 48 h
786-0 = test system: 786-0
A549 = test system: A549
CAKI-1 = test system: CAKI-1
HCT-116 = test system: HCT-116
Hs-578T = test system: Hs-578T
KM12 = test system: KM12
LOX IMVI = test system: LOX IMVI
MDA-MB-231 = test system: MDA-MB-231
Malme-3M = test system: Malme-3M
OVCAR-3 = test system: OVCAR-3
OVCAR-4 = test system: OVCAR-4
OVCAR-8 = test system: OVCAR-8
SF-295 = test system: SF-295
SF-539 = test system: SF-539
SK-MEL-28 = test system: SK-MEL-28
SK-MEL-5 = test system: SK-MEL-5
SK-OV-3 = test system: SK-OV-3
SNB-75 = test system: SNB-75
SW-620 = test system: SW-620
UACC-257 = test system: UACC-257

Measured: GI50

Clc1cccc(Cl)c1/C=N/C12CC3CC(CC(C3)C1)C2
inactive: 786-0 > 10 µM | A549 > 10 µM | CAKI-1 > 10 µM | HCT-116 > 10 µM | Hs-578T > 10 µM | KM12 > 10 µM | LOX IMVI > 10 µM | MDA-MB-231 > 10 µM | Malme-3M > 10 µM | OVCAR-3 > 10 µM | OVCAR-4 > 10 µM | OVCAR-8 > 10 µM | SF-295 > 10 µM | SF-539 > 10 µM | SK-MEL-28 > 10 µM | SK-MEL-5 > 10 µM | SK-OV-3 > 10 µM | SNB-75 6.47 µM | SW-620 > 10 µM | UACC-257 > 10 µM

CC1C(=NO)C(C)C(c2ccccc2)N(N=O)C1c1ccccc1 (stereo not given)
inactive: 786-0 19.6 µM | A549 17.8 µM | CAKI-1 > 10 µM | HCT-116 17.5 µM | Hs-578T 16.4 µM | KM12 16 µM | LOX IMVI 15.9 µM | MDA-MB-231 16.1 µM | Malme-3M 17.4 µM | OVCAR-3 25.2 µM | OVCAR-4 19.6 µM | OVCAR-8 18 µM | SF-295 13.8 µM | SF-539 13.1 µM | SK-MEL-28 16.7 µM | SK-MEL-5 18.9 µM | SK-OV-3 4.72 µM | SNB-75 25.1 µM | SW-620 21.8 µM | UACC-257 23.4 µM

COc1cc2c(cc1O)C(c1cc(O)c(O)c(OC)c1)C(O)(C(=O)O)C(CO)C2O (stereo not given)
inactive: 786-0 16.1 µM | A549 > 100 µM | CAKI-1 > 100 µM | HCT-116 18.3 µM | Hs-578T > 100 µM | KM12 > 100 µM | LOX IMVI 17.9 µM | MDA-MB-231 40.8 µM | Malme-3M > 100 µM | OVCAR-3 > 100 µM | OVCAR-4 > 100 µM | OVCAR-8 > 100 µM | SF-295 > 100 µM | SF-539 > 100 µM | SK-MEL-28 > 100 µM | SK-MEL-5 > 100 µM | SK-OV-3 > 100 µM | SNB-75 > 100 µM | SW-620 26 µM | UACC-257 > 100 µM

CCC(=O)c1cc(C(=O)C(=S)SC)cc(C(=O)C(=S)SC)c1
inactive: 786-0 > 85.7 µM | A549 > 100 µM | CAKI-1 > 100 µM | HCT-116 > 100 µM | Hs-578T > 49.7 µM | KM12 > 100 µM | LOX IMVI 4.19 µM | MDA-MB-231 > 100 µM | Malme-3M > 27.3 µM | OVCAR-3 > 54.2 µM | OVCAR-4 > 100 µM | OVCAR-8 > 100 µM | SF-295 > 100 µM | SF-539 > 100 µM | SK-MEL-28 > 100 µM | SK-MEL-5 > 82.8 µM | SK-OV-3 > 100 µM | SNB-75 > 100 µM | SW-620 52.8 µM | UACC-257 > 100 µM

c1ccc2c(c1)nnn2C1CCCCO1 (stereo not given)
inactive: 786-0 > 100 µM | A549 > 100 µM | CAKI-1 > 100 µM | HCT-116 > 100 µM | Hs-578T > 100 µM | KM12 > 100 µM | LOX IMVI > 100 µM | MDA-MB-231 > 100 µM | Malme-3M > 100 µM | OVCAR-3 > 100 µM | OVCAR-4 > 100 µM | OVCAR-8 > 100 µM | SF-295 > 100 µM | SF-539 > 100 µM | SK-MEL-28 > 100 µM | SK-MEL-5 > 100 µM | SK-OV-3 > 100 µM | SNB-75 > 100 µM | SW-620 > 100 µM | UACC-257 > 100 µM

CC[C@]12C=CCN3CCC4(c5cc(/N=N/c6ccc([N+](=O)[O-])cc6)c(OC)cc5N(C)[C@H]4[C@@](O)(C(=O)OC)[C@@H]1OC(C)=O)[C@@H]32 (stereo not given in full)
inactive: 786-0 11.8 µM | A549 15.3 µM | CAKI-1 12.9 µM | HCT-116 10.7 µM | Hs-578T 18.4 µM | KM12 14.3 µM | LOX IMVI 16.3 µM | MDA-MB-231 9.59 µM | Malme-3M 16.1 µM | OVCAR-3 4.53 µM | OVCAR-4 9.59 µM | OVCAR-8 7.46 µM | SF-295 10.6 µM | SF-539 16.8 µM | SK-MEL-28 11.8 µM | SK-MEL-5 12.4 µM | SK-OV-3 18 µM | SNB-75 9.48 µM | SW-620 2.56 µM | UACC-257 14.7 µM

ClCCN1CCC2(CC1)SSC1(CCN(CCCl)CC1)S2
inactive: 786-0 36.7 µM | A549 89.9 µM | CAKI-1 11.9 µM | HCT-116 45.9 µM | Hs-578T 45.1 µM | KM12 > 100 µM | LOX IMVI 31.8 µM | MDA-MB-231 57.5 µM | Malme-3M 29.2 µM | OVCAR-3 19.7 µM | OVCAR-4 35.2 µM | OVCAR-8 > 100 µM | SF-295 29.4 µM | SF-539 20.6 µM | SK-MEL-28 > 100 µM | SK-MEL-5 42.4 µM | SK-OV-3 30.6 µM | SNB-75 59.3 µM | SW-620 76.6 µM | UACC-257 > 100 µM

COc1ccc(C[C@@H](CO)NC2=C(C#N)CCC2)cc1
inactive: 786-0 64.1 µM | A549 86.7 µM | CAKI-1 43 µM | HCT-116 38.5 µM | Hs-578T 20 µM | KM12 19.5 µM | LOX IMVI 23.7 µM | MDA-MB-231 15.1 µM | Malme-3M 34.7 µM | OVCAR-3 36.8 µM | OVCAR-4 32.1 µM | OVCAR-8 64.4 µM | SF-295 29.7 µM | SF-539 26.3 µM | SK-MEL-28 74.1 µM | SK-MEL-5 34.9 µM | SK-OV-3 49.1 µM | SNB-75 22.2 µM | SW-620 49.2 µM | UACC-257 34.6 µM

COc1ccc(C(NCCNC(c2ccc(OC)c(OC)c2)c2cc3c(cc2O)OCO3)c2cc3c(cc2O)OCO3)cc1OC (stereo not given)
inactive: 786-0 1.82 µM | A549 12.2 µM | CAKI-1 2.64 µM | HCT-116 2.26 µM | Hs-578T 3.24 µM | KM12 2.67 µM | LOX IMVI 1.8 µM | MDA-MB-231 3.13 µM | Malme-3M 4.5 µM | OVCAR-3 2.65 µM | OVCAR-4 4.83 µM | OVCAR-8 1.89 µM | SF-295 5.32 µM | SF-539 2.27 µM | SK-MEL-28 1.62 µM | SK-MEL-5 7.05 µM | SK-OV-3 6.87 µM | SNB-75 3.56 µM | SW-620 1.29 µM | UACC-257 4.26 µM

CN(CCNC(=O)c1nn(-c2ccccc2)c2c1ccc1ccccc12)CCNC(=O)c1nn(-c2ccccc2)c2c1ccc1ccccc12
inactive: 786-0 1.67 µM | A549 2.94 µM | CAKI-1 3.33 µM | HCT-116 1.53 µM | Hs-578T 2.14 µM | KM12 2.37 µM | LOX IMVI 1.77 µM | MDA-MB-231 1.29 µM | Malme-3M 2.23 µM | OVCAR-3 1.71 µM | OVCAR-4 3.39 µM | OVCAR-8 1.79 µM | SF-295 1.61 µM | SF-539 1.66 µM | SK-MEL-28 1.7 µM | SK-MEL-5 1.64 µM | SK-OV-3 2.09 µM | SNB-75 2.18 µM | SW-620 2.17 µM | UACC-257 1.71 µM

COc1ccccc1NC(=S)N/N=C(/c1ccccc1)c1ccccn1
inactive: Hs-578T 7.05 µM | SF-539 1.37 µM | SK-MEL-28 1.39 µM
active: 786-0 0.103 µM | A549 0.141 µM | CAKI-1 < 0.0421 µM | HCT-116 < 0.0147 µM | KM12 0.151 µM | LOX IMVI 0.0254 µM | MDA-MB-231 0.0214 µM | Malme-3M 0.167 µM | OVCAR-3 < 0.0143 µM | OVCAR-4 0.71 µM | OVCAR-8 0.0627 µM | SF-295 0.261 µM | SK-MEL-5 0.0904 µM | SK-OV-3 0.0771 µM | SNB-75 0.998 µM | SW-620 0.021 µM | UACC-257 < 0.0167 µM

Nc1ncnc2c1ncn2C1CCC(COS(N)(=O)=O)C1 (stereo not given)
inactive: 786-0 > 100 µM | A549 > 100 µM | CAKI-1 > 100 µM | HCT-116 57.5 µM | Hs-578T 65.5 µM | KM12 > 100 µM | LOX IMVI 37 µM | MDA-MB-231 > 100 µM | Malme-3M > 100 µM | OVCAR-3 80.7 µM | OVCAR-4 > 100 µM | OVCAR-8 > 100 µM | SF-295 > 100 µM | SF-539 27 µM | SK-MEL-28 > 100 µM | SK-MEL-5 > 100 µM | SK-OV-3 > 100 µM | SNB-75 89.5 µM | SW-620 > 100 µM | UACC-257 > 100 µM

N/N=C(/CC(O)(C(F)(F)F)C(F)(F)F)c1ccccc1
inactive: 786-0 > 10 µM | A549 > 10 µM | CAKI-1 > 10 µM | HCT-116 > 10 µM | Hs-578T > 10 µM | KM12 > 10 µM | LOX IMVI > 10 µM | MDA-MB-231 > 10 µM | Malme-3M > 10 µM | OVCAR-3 7.4 µM | OVCAR-4 > 10 µM | OVCAR-8 > 10 µM | SF-295 > 10 µM | SF-539 > 10 µM | SK-MEL-28 > 10 µM | SK-MEL-5 > 10 µM | SK-OV-3 > 10 µM | SNB-75 > 10 µM | SW-620 > 10 µM | UACC-257 > 10 µM

C[N+](C)(N)CCC[N+](C)(C)N
inactive: 786-0 > 100 µM | A549 > 100 µM | CAKI-1 > 100 µM | HCT-116 > 100 µM | Hs-578T > 100 µM | KM12 > 100 µM | LOX IMVI > 100 µM | MDA-MB-231 > 100 µM | Malme-3M > 100 µM | OVCAR-3 > 100 µM | OVCAR-4 > 100 µM | OVCAR-8 > 100 µM | SF-295 > 100 µM | SF-539 > 100 µM | SK-MEL-28 > 100 µM | SK-MEL-5 > 100 µM | SK-OV-3 > 100 µM | SNB-75 > 100 µM | SW-620 > 100 µM | UACC-257 > 100 µM
